Several values for one entry are separate records, joined by “and”; a condition that tells them apart may be missing. Equal values may be shown once.
What was measured:
Format in all cases: cell-based
[1] = test system: gezüchteten menschlichen Keratinocyten; assay: Morphological differentiation of cultured human keratinocytes (cell counts by cell type)
[2] = test system: menschlicher promyelocytischer Tumorzellen HL-60; assay: Differentiation-inducing (DI) effect on HL-60 cells; settings: for EC50: Homo sapiens, concentration that causes 50% differentiation of the cells, read-out: ED50 (the source's name)
Excerpt: (§1) Zum Nachweis der Aktivität der Verbindungen der Formel I als Mittel zur Behandlung von neoplastischen Krankheiten wurden die antiproliferativen (AP) und die Differenzierung induzierenden Effekte (DI) der Verbindungen A bis F sowie die Anzahl menschlicher promyelocytischer Tumorzellen HL-60 ermittelt. In Tabelle 6 ist der AP Effekt als prozentuale Reduktion der Anzahl Zellen und als Konzentration ID₅₀, die die Zellenanzahl um 50% reduziert, angegeben. Der DI Effekt ist angegeben als Prozentsatz der differenzierten Zellen und als Konzentration ED₅₀ der Verbindungen, die eine 50%ige Differenzierung der Zellen bewirkt.

[3] = test system: menschlicher promyelocytischer Tumorzellen HL-60; assay: Antiproliferative (AP) effect on HL-60 cells; settings: for IC50: Homo sapiens, concentration that reduces the cell number by 50%, read-out: ID50 (the source's name)
Excerpt: as §1

[4] = test system: menschlichen Keratinocyten; assay: Number of human keratinocytes and cornified squamous cells formed in presence of compound
Excerpt: Die Aktivität der Verbindungen der Formel I als Mittel für die Behandlung von hyperproliferativen Hautkrankheiten kann auch durch Ermittlung der Anzahl von menschlichen Keratinocyten, von verhornten Plattenepithelzellen und von Plattenepithel-Karzinomzellenlinien (SCC-115), die sich in Gegenwart der besagten Verbindungen bilden.
Die Resultate sind in den Tabellen 4 und 5 angegeben: Tabelle 4

[5] = Konzentration 0.1 (head prints x10 M)
[6] = Konzentration 1 (head prints x10 M)
[7] = Konzentration 10 (head prints x10 M)
[8] = Konzentration 100 (head prints x10 M)
[9] = Konzentration 1000 (head prints x10 M)
[10] = Konzentration 0.01 (head prints x10 M)

C=C1CC[C@H](O)C/C1=C/C=C1\CCC[C@]2(C)C([C@H](C)CCCC(C)(C)O)=CC[C@@H]12 [Verbindung B, 25-Hydroxy-16-dehydrocholecalciferol]
Anzahl Zellen (x10⁴): Basalzellen ([1]; Dosis 10⁻¹⁰ M): 15±5 x10⁴ | Anzahl Zellen (x10⁴): Gesamtanzahl ([1]; Dosis 10⁻¹⁰ M): 133±6 x10⁴ | Anzahl Zellen (x10⁴): Plattenepithelzellen ([1]; Dosis 10⁻¹⁰ M): 18±1 x10⁴ | Anzahl Zellen (x10⁴): verhornte Plattenepithelzellen ([1]; Dosis 10⁻¹⁰ M): 25±1 x10⁴ | Anzahl Zellen (x10⁴): Basalzellen ([1]; Dosis 10⁻⁶ M): 74±3 x10⁴ | Anzahl Zellen (x10⁴): Gesamtanzahl ([1]; Dosis 10⁻⁶ M): 104±4 x10⁴ | Anzahl Zellen (x10⁴): Plattenepithelzellen ([1]; Dosis 10⁻⁶ M): 30±1 x10⁴ | Anzahl Zellen (x10⁴): verhornte Plattenepithelzellen ([1]; Dosis 10⁻⁶ M): 33±1 x10⁴ | Anzahl Zellen (x10⁴): Basalzellen ([1]; Dosis 10⁻⁸ M): 109±2 x10⁴ | Anzahl Zellen (x10⁴): Gesamtanzahl ([1]; Dosis 10⁻⁸ M): 131±4 x10⁴ | Anzahl Zellen (x10⁴): Plattenepithelzellen ([1]; Dosis 10⁻⁸ M): 22±2 x10⁴ | Anzahl Zellen (x10⁴): verhornte Plattenepithelzellen ([1]; Dosis 10⁻⁸ M): 29±2 x10⁴ | EC50 [2]: 320 nM | Differenzierte Zellen (%) [2, 5]: 5% | Differenzierte Zellen (%) [2, 6]: 4% | Differenzierte Zellen (%) [2, 7]: 6% | Differenzierte Zellen (%) [2, 8]: 93% | Differenzierte Zellen (%) [2, 9]: 95% | IC50 [3]: 350 nM | % Reduktion der Anzahl Zellen [3, 5]: 10% | % Reduktion der Anzahl Zellen [3, 6]: 8% | % Reduktion der Anzahl Zellen [3, 7]: 14% | % Reduktion der Anzahl Zellen [3, 8]: 82% | % Reduktion der Anzahl Zellen [3, 9]: 95%

C=C1CC[C@H](O)C/C1=C/C=C1\CCC[C@]2(C)C([C@H](C)C/C=C/C(C)(C)O)=CC[C@@H]12 [Verbindung D, 25-Hydroxy-16,23E-bisdehydrocholecalciferol]
Anzahl Zellen (x10⁴): Basalzellen ([1]; Dosis 10⁻¹⁰ M): 93±6 x10⁴ | Anzahl Zellen (x10⁴): Gesamtanzahl ([1]; Dosis 10⁻¹⁰ M): 113±7 x10⁴ | Anzahl Zellen (x10⁴): Plattenepithelzellen ([1]; Dosis 10⁻¹⁰ M): 20±1 x10⁴ | Anzahl Zellen (x10⁴): verhornte Plattenepithelzellen ([1]; Dosis 10⁻¹⁰ M): 104±10 x10⁴ | Anzahl Zellen (x10⁴): Basalzellen ([1]; Dosis 10⁻⁶ M): 68±1 x10⁴ | Anzahl Zellen (x10⁴): Gesamtanzahl ([1]; Dosis 10⁻⁶ M): 94±3 x10⁴ | Anzahl Zellen (x10⁴): Plattenepithelzellen ([1]; Dosis 10⁻⁶ M): 26±2 x10⁴ | Anzahl Zellen (x10⁴): verhornte Plattenepithelzellen ([1]; Dosis 10⁻⁶ M): 144±7 x10⁴ | Anzahl Zellen (x10⁴): Basalzellen ([1]; Dosis 10⁻⁸ M): 86±3 x10⁴ | Anzahl Zellen (x10⁴): Gesamtanzahl ([1]; Dosis 10⁻⁸ M): 111±7 x10⁴ | Anzahl Zellen (x10⁴): Plattenepithelzellen ([1]; Dosis 10⁻⁸ M): 25±2 x10⁴ | Anzahl Zellen (x10⁴): verhornte Plattenepithelzellen ([1]; Dosis 10⁻⁸ M): 128±5 x10⁴ | EC50 [2]: 2000 nM | Differenzierte Zellen (%) [2, 5]: 1% | Differenzierte Zellen (%) [2, 6]: 2% | Differenzierte Zellen (%) [2, 7]: 17% | Differenzierte Zellen (%) [2, 8]: 31% | Differenzierte Zellen (%) [2, 9]: 97% | IC50 [3]: 1500 nM | % Reduktion der Anzahl Zellen [3, 5]: 12% | % Reduktion der Anzahl Zellen [3, 6]: 12% | % Reduktion der Anzahl Zellen [3, 7]: 17% | % Reduktion der Anzahl Zellen [3, 8]: 46% | % Reduktion der Anzahl Zellen [3, 9]: 95%

C=C1/C(=C\C=C2/CCC[C@]3(C)[C@@H]([C@H](C)CCCC(C)(C)O)CC[C@@H]23)C[C@@H](O)C[C@@H]1O [Verbindung X, 1,25-Dihydroxychalecalciferol, reference compound]
Anzahl Zellen (x10⁴): Basalzellen ([1]; Dosis 10⁻¹⁰ M): 103±2 x10⁴ and 95±8 x10⁴ and 86±6 x10⁴ | Anzahl Zellen (x10⁴): Gesamtanzahl ([1]; Dosis 10⁻¹⁰ M): 122±4 x10⁴ and 116±9 x10⁴ and 106±7 x10⁴ | Anzahl Zellen (x10⁴): Plattenepithelzellen ([1]; Dosis 10⁻¹⁰ M): 19±2 x10⁴ and 21±1 x10⁴ and 18±1 x10⁴ | Anzahl Zellen (x10⁴): Basalzellen ([1]; Dosis 10⁻⁶ M): 64±6 x10⁴ and 57±4 x10⁴ and 51±5 x10⁴ | Anzahl Zellen (x10⁴): Gesamtanzahl ([1]; Dosis 10⁻⁶ M): 95±7 x10⁴ and 83±5 x10⁴ and 73±7 x10⁴ | Anzahl Zellen (x10⁴): Plattenepithelzellen ([1]; Dosis 10⁻⁶ M): 31±1 x10⁴ and 26±1 x10⁴ and 22±2 x10⁴ | Anzahl Zellen (x10⁴): Basalzellen ([1]; Dosis 10⁻⁸ M): 89±2 x10⁴ and 75±8 x10⁴ and 61±5 x10⁴ | Anzahl Zellen (x10⁴): Gesamtanzahl ([1]; Dosis 10⁻⁸ M): 112±6 x10⁴ and 101±10 x10⁴ and 84±8 x10⁴ | Anzahl Zellen (x10⁴): Plattenepithelzellen ([1]; Dosis 10⁻⁸ M): 23±4 x10⁴ and 26±2 x10⁴ and 23±3 x10⁴ | EC50 [2]: 20 nM | Differenzierte Zellen (%) [2, 10]: 3% | Differenzierte Zellen (%) [2, 5]: 11% | Differenzierte Zellen (%) [2, 6]: 19% | Differenzierte Zellen (%) [2, 7]: 68% | Differenzierte Zellen (%) [2, 8]: 98% | IC50 [3]: 20 nM | % Reduktion der Anzahl Zellen [3, 10]: 6% | % Reduktion der Anzahl Zellen [3, 5]: 5% | % Reduktion der Anzahl Zellen [3, 6]: 16% | % Reduktion der Anzahl Zellen [3, 7]: 66% | % Reduktion der Anzahl Zellen [3, 8]: 84%

C=C1CC[C@H](O)C/C1=C/C=C1\CCC[C@]2(C)C([C@H](C)CC#CC(C)(C)O)=CC[C@@H]12 [Verbindung F, 25-Hydroxy-16-dehydro-23-didehydrocholecalciferol]
Anzahl Zellen (x10⁴): Basalzellen ([1]; Dosis 10⁻¹⁰ M): 81±3 x10⁴ | Anzahl Zellen (x10⁴): Gesamtanzahl ([1]; Dosis 10⁻¹⁰ M): 103±5 x10⁴ | Anzahl Zellen (x10⁴): Plattenepithelzellen ([1]; Dosis 10⁻¹⁰ M): 22±2 x10⁴ | Anzahl Zellen (x10⁴): verhornte Plattenepithelzellen ([1]; Dosis 10⁻¹⁰ M): 103±4 x10⁴ | Anzahl Zellen (x10⁴): Basalzellen ([1]; Dosis 10⁻⁶ M): 55±2 x10⁴ | Anzahl Zellen (x10⁴): Gesamtanzahl ([1]; Dosis 10⁻⁶ M): 84±4 x10⁴ | Anzahl Zellen (x10⁴): Plattenepithelzellen ([1]; Dosis 10⁻⁶ M): 29±1 x10⁴ | Anzahl Zellen (x10⁴): verhornte Plattenepithelzellen ([1]; Dosis 10⁻⁶ M): 137±7 x10⁴ | Anzahl Zellen (x10⁴): Basalzellen ([1]; Dosis 10⁻⁸ M): 67±2 x10⁴ | Anzahl Zellen (x10⁴): Gesamtanzahl ([1]; Dosis 10⁻⁸ M): 97±3 x10⁴ | Anzahl Zellen (x10⁴): Plattenepithelzellen ([1]; Dosis 10⁻⁸ M): 29±1 x10⁴ | Anzahl Zellen (x10⁴): verhornte Plattenepithelzellen ([1]; Dosis 10⁻⁸ M): 121±6 x10⁴ | EC50 [2]: 700 nM | Differenzierte Zellen (%) [2, 5]: 4% | Differenzierte Zellen (%) [2, 6]: 12% | Differenzierte Zellen (%) [2, 7]: 21% | Differenzierte Zellen (%) [2, 8]: 55% | Differenzierte Zellen (%) [2, 9]: 91% | IC50 [3]: 700 nM | % Reduktion der Anzahl Zellen [3, 5]: 13% | % Reduktion der Anzahl Zellen [3, 6]: 10% | % Reduktion der Anzahl Zellen [3, 7]: 8% | % Reduktion der Anzahl Zellen [3, 8]: 58% | % Reduktion der Anzahl Zellen [3, 9]: 95%

C=C1/C(=C\C=C2/CCC[C@]3(C)C([C@H](C)C/C=C/C(C)(C)O)=CC[C@@H]23)C[C@@H](O)C[C@@H]1O [Verbindung C, 1,25-Dihydroxy-16,23E-bisdehydrocholecalciferol]
Anzahl Zellen (x10⁴): Basalzellen ([1]; Dosis 10⁻¹⁰ M): 92±2 x10⁴ | Anzahl Zellen (x10⁴): Gesamtanzahl ([1]; Dosis 10⁻¹⁰ M): 117±4 x10⁴ | Anzahl Zellen (x10⁴): Plattenepithelzellen ([1]; Dosis 10⁻¹⁰ M): 25±2 x10⁴ | Anzahl Zellen (x10⁴): verhornte Plattenepithelzellen ([1]; Dosis 10⁻¹⁰ M): 103±6 x10⁴ | Anzahl Zellen (x10⁴): Basalzellen ([1]; Dosis 10⁻⁶ M): 54±6 x10⁴ | Anzahl Zellen (x10⁴): Gesamtanzahl ([1]; Dosis 10⁻⁶ M): 80±7 x10⁴ | Anzahl Zellen (x10⁴): Plattenepithelzellen ([1]; Dosis 10⁻⁶ M): 26±1 x10⁴ | Anzahl Zellen (x10⁴): verhornte Plattenepithelzellen ([1]; Dosis 10⁻⁶ M): 153±1 x10⁴ | Anzahl Zellen (x10⁴): Basalzellen ([1]; Dosis 10⁻⁸ M): 80±2 x10⁴ | Anzahl Zellen (x10⁴): Gesamtanzahl ([1]; Dosis 10⁻⁸ M): 108±3 x10⁴ | Anzahl Zellen (x10⁴): Plattenepithelzellen ([1]; Dosis 10⁻⁸ M): 28±1 x10⁴ | Anzahl Zellen (x10⁴): verhornte Plattenepithelzellen ([1]; Dosis 10⁻⁸ M): 128±3 x10⁴ | EC50 [2]: 3 nM | Differenzierte Zellen (%) [2, 10]: 3% | Differenzierte Zellen (%) [2, 5]: 19% | Differenzierte Zellen (%) [2, 6]: 92% | Differenzierte Zellen (%) [2, 7]: 97% | Differenzierte Zellen (%) [2, 8]: 99% | IC50 [3]: 3 nM | % Reduktion der Anzahl Zellen [3, 10]: 18% | % Reduktion der Anzahl Zellen [3, 5]: 20% | % Reduktion der Anzahl Zellen [3, 6]: 81% | % Reduktion der Anzahl Zellen [3, 7]: 85% | % Reduktion der Anzahl Zellen [3, 8]: 86%

C=C1/C(=C\C=C2/CCC[C@]3(C)C([C@H](C)CCCC(C)(C)O)=CC[C@@H]23)C[C@@H](O)C[C@@H]1O [Verbindung A, 1,25-Dihydroxy-16-dehydrocholecalciferol]
Anzahl Zellen (x10⁴): Basalzellen ([1]; Dosis 10⁻¹⁰ M): 115±7 x10⁴ | Anzahl Zellen (x10⁴): Gesamtanzahl ([1]; Dosis 10⁻¹⁰ M): 132±8 x10⁴ | Anzahl Zellen (x10⁴): Plattenepithelzellen ([1]; Dosis 10⁻¹⁰ M): 17±1 x10⁴ | Anzahl Zellen (x10⁴): verhornte Plattenepithelzellen ([1]; Dosis 10⁻¹⁰ M): 27±2 x10⁴ | Anzahl Zellen (x10⁴): Basalzellen ([1]; Dosis 10⁻⁶ M): 71±5 x10⁴ | Anzahl Zellen (x10⁴): Gesamtanzahl ([1]; Dosis 10⁻⁶ M): 101±7 x10⁴ | Anzahl Zellen (x10⁴): Plattenepithelzellen ([1]; Dosis 10⁻⁶ M): 30±2 x10⁴ | Anzahl Zellen (x10⁴): verhornte Plattenepithelzellen ([1]; Dosis 10⁻⁶ M): 39±2 x10⁴ | Anzahl Zellen (x10⁴): Basalzellen ([1]; Dosis 10⁻⁸ M): 106±8 x10⁴ | Anzahl Zellen (x10⁴): Gesamtanzahl ([1]; Dosis 10⁻⁸ M): 128±10 x10⁴ | Anzahl Zellen (x10⁴): Plattenepithelzellen ([1]; Dosis 10⁻⁸ M): 22±2 x10⁴ | Anzahl Zellen (x10⁴): verhornte Plattenepithelzellen ([1]; Dosis 10⁻⁸ M): 33±2 x10⁴ | EC50 [2]: 2 nM | Differenzierte Zellen (%) [2, 10]: 3% | Differenzierte Zellen (%) [2, 5]: 16% | Differenzierte Zellen (%) [2, 6]: 92% | Differenzierte Zellen (%) [2, 7]: 97% | Differenzierte Zellen (%) [2, 8]: 98% | Anzahl Keratinocten (x10⁴) ([4]; Dosis 10⁻¹² M): 114.91±10.95 x10⁴ | Anzahl verhornte Plattenepithelzellen (x10²) ([4]; Dosis 10⁻¹² M): 1662.2± 420.1 x10² | Anzahl Keratinocten (x10⁴) ([4]; Dosis 10⁻¹⁰ M): 130.37±24.32 x10⁴ | Anzahl verhornte Plattenepithelzellen (x10²) ([4]; Dosis 10⁻¹⁰ M): 3973.8± 126.99 x10² | Anzahl Keratinocten (x10⁴) ([4]; Dosis 10⁻⁶ M): 109.22±15.87 x10⁴ | Anzahl verhornte Plattenepithelzellen (x10²) ([4]; Dosis 10⁻⁶ M): 8323.5± 157.6 x10² | Anzahl Keratinocten (x10⁴) ([4]; Dosis 10⁻⁸ M): 120.67±16.87 x10⁴ | Anzahl verhornte Plattenepithelzellen (x10²) ([4]; Dosis 10⁻⁸ M): 7235.2± 55.5 x10² | IC50 [3]: 2 nM | % Reduktion der Anzahl Zellen [3, 10]: 10% | % Reduktion der Anzahl Zellen [3, 5]: 33% | % Reduktion der Anzahl Zellen [3, 6]: 84% | % Reduktion der Anzahl Zellen [3, 7]: 85% | % Reduktion der Anzahl Zellen [3, 8]: 85%

— patent EP0325279A1, “Dehydrocholecalciferol derivatives” (F. HOFFMANN-LA ROCHE AG, priority 1988, dated 1989)
